Source: publication PMC6273229, “Imidazopyranotacrines as Non-Hepatotoxic, Selective Acetylcholinesterase Inhibitors, and Antioxidant Agents for Alzheimer′s Disease Therapy” (Molecules, 2016)
Like-named read-outs stand apart in the source and are kept apart here.

Columns and labels:
[1] = target: AChE from Electrophorus electricus (EeAChE) (Electrophorus electricus, UniProt O42275); assay: biochemical
Method: The inhibitory activity on AChE from Electrophorus electricus (type VI-S, Sigma, Milan, Italy), was evaluated spectrophotometrically by the method of Ellman et al.. AChE stock solution was prepared by dissolving EeAChE lyophilized powder (Sigma) in 0.1 M phosphate buffer (pH = 8.0) containing 0.1% Triton X-100. Stock solutions of the tested compounds (1 mM) were prepared in MeOH/H2O 50/50 (v/v) and diluted in MeOH/H2O 50/50 (v/v). […] Assay solutions with and without inhibitor were preincubated at 37 °C for 20 min followed by the addition of substrate. Blank solutions containing all components except EeAChE were prepared in parallel to account for the non-enzymatic hydrolysis of the substrate. Initial rate assays were performed at 37 °C with a Jasco V-530 double beam spectrophotometer. […] The velocity in the presence and absence of inhibitor were compared and % inhibition was calculated. The results were plotted by placing the percentage of inhibition in function of the decimal log of the final inhibitor concentration. Linear regression and IC50 values were calculated using Microcal Origin 3.5 software (Microcal Software, […]).

[2] = target: T1, BuChE from horse serum (eqBuChE) (Equus caballus, UniProt P81908); assay: biochemical; conditions: mean ± SEM
T1 construct: BuChE from horse serum (lyophilized powder, Sigma-Aldrich); purchased Sigma-Aldrich; host or cells: horse serum
Method: The % inhibitory activity on BuChE from horse serum (lyophilized powder, Sigma-Aldrich), was evaluated spectrophotometrically by the method of Ellman et al.. BuChE stock solutions were first dissolved in 0.1 M phosphate buffer (pH 8.0) and then aliquoted in small vials. Compounds were dissolved in DMSO at 10 mM. The reaction was carried out in a final volume of 3 mL of a 0.1 M phosphate-buffered solution at pH 8.0, containing 5,5′-dithiobis-2-nitrobenzoic acid (DTNB, 2625 µL, 0.35 mM, final concentration), eqBuChE (60 µL, 0.05 U/mL final concentration), tested compound (3 µL, 10 µM, final concentration) and 1% w/v Bovine Serum Albumin phosphate-buffered (pH 8.0) solution (BSA, 40 µL). The inhibition with respect to control without compound was determined by pre-incubating this mixture at rt with each compound for 10 min. After this period, butyrylthiocholine iodide (150 µL, 0.5 mM final concentration) was added and incubated for 15 min at rt.

EeAChE = target: T2, EeAChE (Electrophorus electricus, UniProt O42275); assay: Kinetic analysis of the inhibition of EeAChE (Lineweaver-Burk, Dixon, Cornish-Bowden plots); type: biochemical
T2 construct: purchased Sigma type VI-S
Method: . […] The non-competitive mechanism of action was confirmed by building the Cornish-Bowden plot (Figure 3B). Replots of the substrate/velocity versus the concentration of compound 8 provided an estimate of the non-competitive inhibition constant, which resulted equal to 4.10 μM. The non-competitive mechanism of action was confirmed by computational chemistry by performing the docking analysis of both enantiomers of compound 8 on AChE (see Supplementary Materials).
[…]. Four concentrations of inhibitor were selected for this study: 0.850, 2.124, 3.399, 6.798 μM. The plots were assessed by a weighted least-squares analysis that assumed the variance of the velocity (v) to be a constant percentage of v for the entire data set. Data analysis was performed with GraphPad Prism 4.03 software (GraphPad Software Inc., San Diego, CA, USA). The determination of the non-competitive inhibition constant Ki value was carried out using Dixon plot, i.e., plotting the apparent 1/v vs. inhibitor concentration [I] [34] and confirmed by Cornish-Bowden plot ([substrate]/v vs. [I]).

[3] = Oxygen radical absorbance capacity by fluorescence (ORAC-FL); conditions: Trolox equivalents, mean ± SD
Method: The antioxidant power of the imidazopyranotacrines 1–13 was determined by the oxygen radical absorbance capacity by fluorescence (ORAC-FL) method using fluorescein as fluorescent probe and Trolox (6-hydroxy-2,5,7,8-tetramethylchroman-2-carboxylic acid) as a reference compound. Results are expressed as Trolox equivalents (μmol Trolox per μmol test compound).
The radical scavenging activity of imidazopyranotacrines 1–13 was determined by the ORAC-FL method using a Varioskan Flash plate reader with built-in injectors (Thermo Scientific). Trolox, 2,2′-azobis(amidinopropane) dihydrochloride (AAPH) and fluorescein (FL) were purchased from Sigma-Aldrich. The reaction was performed at 37 °C in 75 mM phosphate buffer (pH = 7.4), and the final volume reaction mixture was 200 µL. The final concentrations were 1–8 µM for Trolox and 0.1–1 µM for the tested compounds. Briefly, in a black 96-well microplate (Nunc), antioxidant (20 µL) and fluorescein (120 µL) were incubated for 15 min at 37 °C. Then, 2,2′-azobis(amidinopropane) dihydrochloride (60 µL) was added using the built-in injector. […] All assays were made in triplicate and at least three different assays were performed for each sample.
The net AUC corresponding to a sample was calculated as follows: Net AUC = AUCantioxidant − AUCblank(2)
Regression equations were calculated by plotting the net AUC against the antioxidant concentration. The ORAC value was obtained by dividing the slope of the latter curve by the slope of the Trolox curve obtained in the same assay. ORAC values was expressed as µmol of Trolox equivalent/µmol of imidazopyranotacrines. Data are expressed as mean ± SD.

HepG2 cells = type: cell-based; conditions: for Cell viability (MTT reduction, % control): 24 h, mean ± S.E.M.; for hepatotoxicity on HepG2 cells (in words): cell viability assay, 1–1000 µM
Method: The human hepatoma HepG2 line cells were purchased from American Type Culture Collection. The cells were cultured in Eagle’s Minimum Essential Medium (Ozyme, Montigny-le-Bretonneux, France) supplemented with 10% fetal bovine serum, 1X non-essential amino acids, 100 units/mL penicillin and […] streptomycin (Dutscher, Brumath, France). […] Prior to the experiment, cells were seeded in 96-well culture plates at a density of 0.1 × 10^6 cells per well. After 24 h of incubation, the culture medium was refreshed and 100 µL of the test compounds or DMSO (0.1%) were added. Compounds were tested at 7 concentrations (1–1000 µM) in triplicate.
Cell viability, measured as the mitochondrial activity of living cells, was determined by quantitative colorimetric assay with 3-[4,5 dimethylthiazol-2-yl]-2,5-diphenyl-tetrazolium bromide (MTT). Briefly, after 24 h of treatment, cells were incubated with 50 µL MTT (0.5 mg/mL, Sigma Aldrich) at 37 °C for 2 h. Plates were centrifuged, MTT was removed and 100 µL DMSO was distributed per well. The absorbance was read at 570 nm by microplate spectrophotometry. Cell viability was expressed as percentage over controls (DMSO, 0.1%).

[4] = ORAC-FL, Trolox equivalents, cited from earlier work

T2 sequence (O42275 24-633): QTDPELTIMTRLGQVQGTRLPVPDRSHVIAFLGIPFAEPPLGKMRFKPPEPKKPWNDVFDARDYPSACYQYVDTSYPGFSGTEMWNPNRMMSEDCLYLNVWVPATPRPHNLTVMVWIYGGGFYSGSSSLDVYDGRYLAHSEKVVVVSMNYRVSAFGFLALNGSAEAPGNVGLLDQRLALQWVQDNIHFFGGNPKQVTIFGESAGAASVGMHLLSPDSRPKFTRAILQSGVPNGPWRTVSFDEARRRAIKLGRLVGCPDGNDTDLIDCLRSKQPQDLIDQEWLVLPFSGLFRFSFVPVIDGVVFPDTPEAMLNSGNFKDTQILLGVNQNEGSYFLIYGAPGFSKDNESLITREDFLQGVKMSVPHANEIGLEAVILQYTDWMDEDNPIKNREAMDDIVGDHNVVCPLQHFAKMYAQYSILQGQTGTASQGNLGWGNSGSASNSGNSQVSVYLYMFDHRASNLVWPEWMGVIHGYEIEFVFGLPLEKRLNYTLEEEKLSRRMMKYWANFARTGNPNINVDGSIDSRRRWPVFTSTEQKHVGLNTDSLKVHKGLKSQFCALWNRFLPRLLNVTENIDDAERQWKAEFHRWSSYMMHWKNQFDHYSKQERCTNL
T1 sequence (P81908 whole entry): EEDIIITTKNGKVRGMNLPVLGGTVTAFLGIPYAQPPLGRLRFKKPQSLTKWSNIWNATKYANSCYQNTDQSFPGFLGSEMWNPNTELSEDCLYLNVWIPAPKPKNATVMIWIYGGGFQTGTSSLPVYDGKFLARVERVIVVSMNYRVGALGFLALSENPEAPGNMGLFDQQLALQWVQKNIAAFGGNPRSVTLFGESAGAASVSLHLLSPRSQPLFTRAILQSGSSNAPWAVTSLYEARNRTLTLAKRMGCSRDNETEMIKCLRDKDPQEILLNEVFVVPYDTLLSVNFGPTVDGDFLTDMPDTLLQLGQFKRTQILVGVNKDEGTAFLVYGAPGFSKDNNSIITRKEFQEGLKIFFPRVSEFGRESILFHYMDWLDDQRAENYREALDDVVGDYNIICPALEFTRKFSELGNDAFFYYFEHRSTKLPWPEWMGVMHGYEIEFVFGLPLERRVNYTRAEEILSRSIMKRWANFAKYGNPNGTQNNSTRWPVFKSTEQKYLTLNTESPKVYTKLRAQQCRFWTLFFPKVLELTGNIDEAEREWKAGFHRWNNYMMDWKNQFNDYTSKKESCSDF
Chain of AChE from Electrophorus electricus (EeAChE) (O42275 24-633): as the sequence (O42275 24-633) above

| SMILES | IC50 [1] | inhibition at 10 µM [2] | mechanism of inhibition of EeAChE (EeAChE; Km unaltered, Vmax decreased) | Ki (EeAChE; substrate acetylthiocholine, estimate from Cornish-Bowden plot, read-out: non-competitive inhibition constant (Ki)) | ORAC [3] | Cell viability (MTT reduction, % control) (HepG2 cells; HepG2, 1 µM) | Cell viability (MTT reduction, % control) (HepG2 cells; HepG2, 3 µM) | Cell viability (MTT reduction, % control) (HepG2 cells; HepG2, 10 µM) | Cell viability (MTT reduction, % control) (HepG2 cells; HepG2, 30 µM) | Cell viability (MTT reduction, % control) (HepG2 cells; HepG2, 100 µM) | Cell viability (MTT reduction, % control) (HepG2 cells; HepG2, 300 µM) | Cell viability (MTT reduction, % control) (HepG2 cells; HepG2, 1000 µM) | hepatotoxicity on HepG2 cells (in words) (HepG2 cells) | ORAC [4] | ORAC ([4]; listed as tacrine) |
| --- | --- | --- | --- | --- | --- | --- | --- | --- | --- | --- | --- | --- | --- | --- | --- |
| Cn1ccnc1C1c2c(nc3c(c2N)CCCC3)Oc2ccc3ccccc3c21 (centres unmarked) [Compound 8, 14-(1-Methyl-1H-imidazol-2-yl)-9,11,12,14-tetrahydro-10H-benzo[5,6]chromeno[2,3-b]quinolin-13-amine] | 6.73 ± 0.52 µM | 51.6 ± 0.6% | non-competitive | 4.1 µM | 1.88 ± 0.01 µmol Trolox/µmol compound | 108.1 ± 5.4 % control | 101.3 ± 10.8 % control | 79.0 ± 9.1 % control | 57.6 ± 4.2 % control | 52.7 ± 3.3 % control | 51.2 ± 2.8 % control | 66.2 ± 6.8 % control | more toxic than tacrine |  |  |
| Nc1c2c(nc3ccccc13)CCCC2 [Tacrine] |  |  |  |  |  | 95.8 ± 2.2 % control | 100.4 ± 2.2 % control | 96.9 ± 3.9 % control | 97.7 ± 3.9 % control | 98.6 ± 3.8 % control | 39.2 ± 4.7 % control | 20.0 ± 2.1 % control | safe up to 100 µM | 0.20 ± 0.04 [28] µmol Trolox/µmol compound | 0.20 ± 0.04 µmol Trolox/µmol compound |
